Experimental findings from patent publication US6180651A, “Diarylmethylidenefuran derivatives, processes for their preparation and their uses in therapeutics” (Bristol-Myers Squibb, priority 1996, dated 2001) are described below.

Test [1] concerns carrageenin oedema. Put plainly: anti-inflammatory activity, carrageenin oedema test. The format is in vivo. Conditions: rat, oral; dose which induces 50% decrease in the volume of the oedema; read-out: Anti-inflammatory activity ID50. The procedure:
(§1) The anti-inflarnmatory activity of the compounds of the Examples was evaluated by the carrageenin oedema method and the analgesic activity was evaluated by the kaolin arthritis method.
Anti-inflammatory Activity:
The anti-inflammatory activity is evaluated in the rat by the carrageenin oedema test. The product is administered orally at a rate of 2.5 ml/100 g (n=6 animals per dose) 2 h 30 min after oral hyperhydration (2.5 m/100 g); one hour after administration of the product, the oedema is induced by the plantar subcutaneous injection of 2% aqueous carrageenin solution. The results are expressed as the ID50, the dose in mg/kg which induces 50% decrease in the volume of the oedema, calculated by linear regression using the maximum oedema volume obtained for each product tested.
For orientation: Carrageenan injected into the paw causes an acute inflammation.

The subject of test [2] is kaolin arthritis. The test can be described thus: analgesic activity, kaolin arthritis test. Format: in vivo. Conditions: rat, oral; dose which induces 50% decrease of the maximum quotation in the control batch; read-out: Analgesic activity DE50. The procedure: as §1
The analgesic activity is evaluated in the rat by the kaolin arthritis test. Thirty minutes after the intra-articular administration of 10% aqueous kaolin suspension, the product is administered orally at a rate of 1 ml/100 g (n=10 animals per dose). The results are expressed as DE50, the dose in mg/kg which induces 50% decrease of the maximum quotation in the control batch, calculated by linear regression.

Test [3] has as its target T1, COX-2 (Ovis aries, UniProt P79208).
T1 construct: purified enzyme from ewe placenta; from tissue; host or cells: ewe placenta (purified enzyme)
T1 sequence (P79208 17-603): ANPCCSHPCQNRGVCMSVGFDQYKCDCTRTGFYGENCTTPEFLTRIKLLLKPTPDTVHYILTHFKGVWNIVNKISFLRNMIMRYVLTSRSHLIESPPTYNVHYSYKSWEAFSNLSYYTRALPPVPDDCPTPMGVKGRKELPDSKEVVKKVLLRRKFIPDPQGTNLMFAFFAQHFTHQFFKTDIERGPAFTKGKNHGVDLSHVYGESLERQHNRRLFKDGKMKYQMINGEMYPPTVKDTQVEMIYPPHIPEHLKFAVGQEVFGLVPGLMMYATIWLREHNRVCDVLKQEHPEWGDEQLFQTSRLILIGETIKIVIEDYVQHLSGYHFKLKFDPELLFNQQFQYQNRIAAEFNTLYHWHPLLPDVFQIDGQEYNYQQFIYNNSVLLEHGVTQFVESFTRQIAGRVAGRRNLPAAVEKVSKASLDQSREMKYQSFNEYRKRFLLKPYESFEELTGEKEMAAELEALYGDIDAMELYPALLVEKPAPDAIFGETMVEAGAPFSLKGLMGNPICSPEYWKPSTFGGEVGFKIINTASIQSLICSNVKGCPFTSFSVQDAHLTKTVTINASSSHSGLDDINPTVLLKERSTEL
The test can be described thus: inhibition of COX-2 enzymatic activity (PGE2 by EIA). Format: biochemical, ewe. Conditions: for IC50: purified enzyme from ewe placenta, arachidonic acid 4 μM, n=1 to 4 determinations; for Selectivity COX-1/COX-2 ratio: ratio of IC50 COX-1 / IC50 COX-2. The procedure: (§2) Inhibition of the COX-1 and COX-2 Enzymatic Activities The test molecule is preincubated for 10 minutes at 25° C. with 2 U of COX-1 (purified enzyme from ram seminal vesicles) or 1 U of COX-2 (purified enzyme from ewe placenta). Arachidonic acid (6 μM for COX-1, 4 μM for COX-2) is added to the reaction medium and incubation is carried out for 5 minutes at 25° C. When incubation has ended, the enzymatic reaction is stopped by the addition of 1 N HCl and the PGE2 produced is determined by EIA. The results are expressed as IC50, the concentration in nM which corresponds to 50% inhibition of the maximal enzymatic activity on the COX-1 and COX-2 (n=1 to 4 determinations).

Test [4] has as its target T2, COX-1 (Ovis aries, UniProt P05979).
T2 construct: purified enzyme from ram seminal vesicles; from tissue; host or cells: ram seminal vesicles (purified enzyme)
T2 sequence (P05979 25-600): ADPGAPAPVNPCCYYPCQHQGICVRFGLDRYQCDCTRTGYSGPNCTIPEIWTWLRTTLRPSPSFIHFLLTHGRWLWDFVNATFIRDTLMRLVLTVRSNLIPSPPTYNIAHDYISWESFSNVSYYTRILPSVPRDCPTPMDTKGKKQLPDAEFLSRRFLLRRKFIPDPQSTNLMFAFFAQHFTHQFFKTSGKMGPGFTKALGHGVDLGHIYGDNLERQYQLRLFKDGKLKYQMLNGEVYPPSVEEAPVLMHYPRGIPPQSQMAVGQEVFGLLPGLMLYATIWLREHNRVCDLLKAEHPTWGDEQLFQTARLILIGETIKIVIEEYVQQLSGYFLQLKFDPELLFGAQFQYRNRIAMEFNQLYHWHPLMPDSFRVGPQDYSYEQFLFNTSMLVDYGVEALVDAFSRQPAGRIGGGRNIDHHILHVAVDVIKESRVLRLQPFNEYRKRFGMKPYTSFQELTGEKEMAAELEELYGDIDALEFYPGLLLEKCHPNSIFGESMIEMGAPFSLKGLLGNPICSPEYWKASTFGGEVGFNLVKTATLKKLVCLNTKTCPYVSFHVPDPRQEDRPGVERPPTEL
The test can be described thus: inhibition of COX-1 enzymatic activity (PGE2 by EIA). The format is biochemical. Conditions: purified enzyme from ram seminal vesicles; arachidonic acid 6 μM; n=1 to 4 determinations. As for the experimental part: as §2

On to `CS(=O)(=O)c1ccc(/C(=C2\CCOC2=O)c2cccc(Cl)c2)cc1` [23 (Z isomer), (Z)-3-[1-(3-Chlorophenyl)-1-(4-methanesulphonylphenyl)-methylidene]dihydrofuran-2-one], for which the figures for the ED50 in test [1] and in test [2] were 9.3 mg/kg and 7.2 mg/kg, respectively.
Usually IC50 stands for the midpoint of a concentration-inhibition curve. A low value points to greater potency in that assay. For `Cc1ccc(/C(=C2/CCOC2=O)c2ccc(S(C)(=O)=O)cc2)cc1` [85 (E isomer), (E)-3-[1-(4-methylphenyl)-1-(4-methanesulphonylphenyl)methylidene]-dihydro-furan-2-one], the ED50 in test [1] and in test [2] was > 30 mg/kg each time. The figures for the IC50 in test [3] and in test [4] were 0.35 µM and > 100 µM, respectively. For the same molecule, the “Selectivity COX-1/COX-2 ratio” value in test [3] is > 286.
Consider `CS(=O)(=O)c1ccc(/C(=C2\CCOC2=O)c2ccc(F)c(F)c2)cc1` [54 (Z isomer), (Z)-3-[1-(3,4-Difluorophenyl)-1-(4-methanesulphonylphenyl)-methylidene]dihydrofuran-2-one], for which the figures for the ED50 in test [1] and in test [2] were > 30 mg/kg and 10.8 mg/kg, respectively. Besides, the IC50 in test [3] was 0.71 µM; in test [4], > 100 µM. The “Selectivity COX-1/COX-2 ratio” value in test [3] was > 141.
Consider `CS(=O)(=O)c1ccc(/C(=C2/CCOC2=O)c2cccc(Cl)c2)cc1` [23 (E), (E)-3-[1-(3-chlorophenyl)-1-(4-methanesulphonylphenyl)methyl-idene]-dihydrofuran-2-one], for which the IC50 in test [3] was 0.627 µM; in test [4] it was > 100 µM. The “Selectivity COX-1/COX-2 ratio” value in test [3] was > 159.
With `CS(=O)(=O)c1ccc(/C(=C2\CCOC2=O)c2ccc(Br)cc2)cc1` [100 (Z isomer), (Z)-3-[1-(4-bromophenyl)-1-(4-methanesulphonylphenyl)methylidene]-dihydro-furan-2-one], in test [1], the ED50 amounted to 3.6 mg/kg. Moreover, the IC50 in test [3] stood at 0.166 µM; in test [4] it was 62 µM. Also, the “Selectivity COX-1/COX-2 ratio” value in test [3] is on record as 373.
Take `Cc1cc(/C(=C2/CCOC2=O)c2ccc(S(N)(=O)=O)cc2)ccc1F` [135 (Z isomer), (Z)-4-[(4-fluoro-3-methylphenyl)-(2-oxo-dihydrofuran-3-ylidene)methyl]benzenesulphonamide]: the ED50 was 3.3 mg/kg in test [1] and 6.1 mg/kg in test [2]. Besides, the IC50 amounted to 0.245 ± 0.076 µM in test [3] and 19.7 µM in test [4]. In test [3], the “Selectivity COX-1/COX-2 ratio” value is 80.
Consider `CS(=O)(=O)c1ccc(/C(=C2/CCOC2=O)c2ccc(Cl)cc2)cc1` [8 (E isomer), (E)-3-[1-(4-chlorophenyl)-1-(4-methanesulphonylphenyl)methylidene]dihydrofuran-2-one], for which the ED50 in test [1] was > 30 mg/kg.
For the molecule `CS(=O)(=O)c1ccc(/C(=C2\CCOC2=O)c2cccc(F)c2)cc1` [13 (Z isomer), (Z)-3-[1-(3-fluorophenyl)-1-(4-methanesulphonylphenyl)methylidene]dihydrofuran-2-one], the ED50 in test [1] is 3.9 mg/kg; in test [2] it was 14.1 mg/kg. Also, the results for the IC50 in test [3] and in test [4] were 0.61 µM and > 100 µM, respectively. In test [3], the “Selectivity COX-1/COX-2 ratio” value is on record as > 164.
As for `CS(=O)(=O)c1ccc(/C(=C2\CCOC2=O)c2ccccc2)cc1` [28 (E isomer), (E)-3-[1-Phenyl-1-(4-methanesulphonylphenyl)methylidene]-dihydrofuran-2-one], the ED50 in test [1] is 10.1 mg/kg; in test [2], 26.1 mg/kg. Further, the IC50 in test [3] was 18.4 µM; in test [4], > 10 µM. Moreover, the “Selectivity COX-1/COX-2 ratio” value in test [3] is on record as > 0.5.
On the same counts, the results for `Cc1ccc(/C(=C2/CCOC2=O)c2ccc(S(N)(=O)=O)cc2)cc1F` [130 (Z isomer), (Z)-4-[(3-fluoro-4-methylphenyl)-(2-oxo-dihydrofuran-3-ylidene)methyl]benzenesulphonamide] are 2 mg/kg, 2.4 mg/kg, 0.131 ± 0.019 µM, 45.7 µM and 349.
As for `CS(=O)(=O)c1ccc(/C(=C2\CCOC2=O)c2ccc(Cl)c(Cl)c2)cc1` [18 (Z isomer), (Z)-3-[1-(3,4-Dichlorophenyl)-1-(4-methanesulphonylphenyl)-methylidene]dihydrofuran-2-one], the ED50 was > 30 mg/kg in test [1] and 6.1 mg/kg in test [2]. The results for the IC50 in test [3] and in test [4] were 0.132 ± 0.032 µM and 73.2 µM, respectively. Also, in test [3], the “Selectivity COX-1/COX-2 ratio” value worked out at 555.
On to `CS(=O)(=O)c1ccc(/C(=C2\CCOC2=O)c2ccc(F)c(Cl)c2)cc1` [95 (Z isomer), (Z)-3-[1-(3-chloro-4-fluorophenyl)-1-(4-methanesulphonylphenyl)methylidene]-dihydrofuran-2-one], for which the ED50 in test [1] was found to be 1.6 mg/kg; in test [2] it was 5.8 mg/kg. The IC50 in test [3] came to 0.205 ± 0.035 µM; in test [4] it was 309 ± 27.5 µM. Besides, the “Selectivity COX-1/COX-2 ratio” value in test [3] came to 1510.
Regarding `CCC1C/C(=C(/c2ccc(F)cc2)c2ccc(S(C)(=O)=O)cc2)C(=O)O1` (stereo not drawn) [34 (E isomer), (E)-5-Ethyl-3-[1-(4-fluorophenyl)-1-(4-methanesulphonylphenyl)methylidene]dihydrofuran-2-one], the ED50 in test [2] is 38.8 mg/kg. In test [3], the midpoint of inhibition, the IC50, lay at 0.694 µM and the “Selectivity COX-1/COX-2 ratio” value is reported as > 144. Further, in test [4], the IC50 is > 100 µM.
With `NS(=O)(=O)c1ccc(/C(=C2\CCOC2=O)c2ccc(F)cc2)cc1` [60 (E isomer), (E)-4-[(4-fluorophenyl)-(2-oxo-dihydrofuran-3-ylidene)methyl]benzenesulphonamide], the ED50 in test [1] was 1.7 mg/kg; in test [2], 20.9 mg/kg. Besides, the values for the IC50 in test [3] and in test [4] were 0.296 ± 0.107 µM and 81 µM, respectively. In test [3], the “Selectivity COX-1/COX-2 ratio” value is recorded as 274.
As for `CS(=O)(=O)c1ccc(/C(=C2\CCOC2=O)c2cccc(Br)c2)cc1` [90 (Z isomer), (Z)-3-[1-(3-bromophenyl)-1-(4-methanesulphonylphenyl)methylidene]-dihydro-furan-2-one], the ED50 in test [1] came to 17.2 mg/kg. For the same molecule, in test [3], the midpoint of inhibition, the IC50, lay at 0.458 µM and the “Selectivity COX-1/COX-2 ratio” value was > 218. In addition, in test [4], the IC50 is > 100 µM.
For the molecule `CS(=O)(=O)c1ccc(/C(=C2\CCOC2=O)c2ccc(F)cc2F)cc1` [75 (Z isomer), (Z)-3-[1-(2,4-difluorophenyl)-1-(4-methanesulphonylphenyl)methylidene]-dihydro-furan-2-one], in test [1], the ED50 was 4.6 mg/kg.
In the case of `CS(=O)(=O)c1ccc(/C(=C2\CCOC2=O)c2cc(Cl)cc(Cl)c2)cc1` [70 (Z isomer), (Z)-3-[1-(3,5-dichlorophenyl)-1-(4-methanesulphonylphenyl)methylidene]-dihydro-furan-2-one], the results for the ED50 in test [1] and in test [2] were 5.5 mg/kg and 21.5 mg/kg, respectively. The IC50 in test [3] was 0.225 µM; in test [4], > 100 µM. Further, in test [3], the “Selectivity COX-1/COX-2 ratio” value is > 444.
